Target: T1, Supt4h-GL1 / NGN-GL2 interaction (Homo sapiens, UniProt O00267+P63272)
T1 construct: the amino terminal domain of Supt5h (NGN); expressed in transfected cells; host or cells: M2-8, a clone of 293-R1 (HEK 293), RSL1-induced
Experiment: Split Gaussia luciferase complementation assay in M2-8 (HEK-293) cells
Format: cell-based
Conditions: M2-8 cells, RSL1 150 nM
Protocol: ii: M2-8 is a cloned 293-R1 cell which can inducibly express pNEBR-X1-Supt4h-G1-NGN-G2 by addition of RSL1. Two point mutations (M431 and M1101) were introduced to the GL1 and GL2 for better stability according to “A high-throughput cell-based Gaussia luciferase reporter assay for identifying modulators of fibulin-3 secretion” published on J Biomol Screen. 2013 July; 18(6):647-58. The cell line was selected by Hygromycin.
Plasmids harboring the Gluc1 and Gluc2 were co-transfected in a 1:1 ratio into 293-R1 cells plated on tissue culture treated 24-well plates using Lipofectamine 2000 according to the manufacturer's instruction. […] Signal intensities (integrated 100 ms) were read on Tecan Infinite M200 or M1000.
Human genes encoding the Supt4h protein or the amino terminal domain of Supt5h (NGN) were each fused with genes that encode subunits (GLuc1 or GLuc2) of Gaussia princeps luciferase to generate Supt4h-GL1 and NGN-GL2. […] The Gausssia luciferase substrate, native Coelenterazine, was added at a final concentration of 10 μg/ml to extracts of cells containing the indicated constructs and the magnitude of luminescence was determined using a luminometer (Tecan Infinite M200) that detects light emitted by luciferase. […] The luciferase activity that is detected is very specific and results only from interaction between the Supt4h and NGN. […]

## O=c1cnn([C@@H]2O[C@H](CO)[C@@H](O)[C@H]2O)c(=O)[nH]1 [HD101, 6-Azauridine]
  inhibition of Supt4h/NGN interaction (luciferase activity): inhibiting the interaction between Supt4h/NGN

From US10675293B2, “Nucleoside agents for the reduction of the deleterious activity of extended nucleotide repeat containing genes” (The Board of Trustees of the Leland Stanford Junior …, priority 2015, dated 2020)
